In assay [1] the target is segments of rabbit duodenum (Oryctolagus cuniculus, UniProt G1T803). Briefly: Rabbit duodenal smooth muscle strip tissue bath assay. The assay is classed as cell-based. Conditions: negative logarithm of the dose giving 50% of the maximal response to motilin; isotonic contraction of rabbit duodenum segments. Put shortly:
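Isotonic contraction of rabbit duodenal segments after 1 h equilibration and 10^-4 M acetylcholine challenge; cumulative compound curve over 10^-11 to 10^-4 M, then 10^-7 M motilin. Runs discarded if final acetylcholine response differed >5%. EC50 at 50% of maximal motilin response, reported as pEC50.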

The target of the next assay is T1, motilin receptor (Oryctolagus cuniculus, UniProt G1T803).
T1 construct: from tissue; host or cells: rabbit antral smooth muscle membranes
Briefly: Determination of motilin receptor binding affinity (displacement of [125I-Tyr7, Nle13]motilin(porcine)). Further details: species or system rabbit. As to conditions: negative logarithm of the concentration displacing 50% of [125I-Tyr7, Nle13]motilin(porcine) from rabbit antral smooth muscle membranes; read-out: pIC50 (converted). The procedure:
The motilin receptor binding affinity of the peptides of this invention was determined by using the general procedure of Bormans, Peelers and Vantrappen, Regul. […] Fitting was performed using the iterative least-squares procedure of the SAS-software package (SAS Institute, Inc., Cary, N.C., USA).
A general note: Displacement assays read how much labelled ligand stays bound in the presence of the test substance.

Assay [2] concerns canine gastrointestinal tract. Briefly: Contractile activity in the canine gastrointestinal tract. The assay is classed as in vivo, dog. As to conditions: anesthetized dogs, intra-arterial injection to a duodenal segment; amount giving 50% of the calibration response to field stimulation. The procedure:
Mongrel dogs of either sex were anesthetized with sodium pentobarbital 65 mg/kg intravenously. A mid-line incision was made in the abdomen. A duodenal segment was located, the terminal arteries to that segment were identified, and the closest possible artery of the appropriate size was rubbed clean of fat and fascia. A needle of suitable diameter was bent at an angle and the tip inserted in the cleaned artery. The needle was held in position in the artery for approximately 30 seconds until vascular spasm has relaxed and then a catheter assembly was inserted into the artery and tied into position with 000 silk sutures. The fine polyethylene catheter (10-15 cm) was cut to a point at one end with a needle inserted at the other end. The hub of the needle was fitted with a 3-way stopcock and the catheter assembly was filled with heparinized Krebs Ringer bicarbonate containing 10 mM glucose. A bolus of Krebs (free of air) was injected into the arterial catheter and the distribution of blanching in the segment noted. If the area was too large, collateral arteries may be tied off as long as circulation to the area was maintained. A Bass type strain gauge was then sutured to the serosa, and oriented so that circular muscle contractions can be recorded on a Beckman R611 dynograph. Silver wire electrodes were inserted subserosally on either side of the strain gauge and were connected through stimulus isolation units to a Grass S88 electrical stimulator. Electrical field stimulation was applied at 40 V 0.5 ms and 5 pps and the amplitude of the pen recorder was set to contain the contractile response.
All peptides to be injected were dissolved in Krebs and serial dilutions were prepared so that for any concentration the maximum volume to be injected was 1 ml. All solutions except stock Krebs were held on ice for the day of the experiment and discarded at the end of the day. For determination of a dose-response curve, the site was first injected with a bolus of approximately 1 ml of heparinized Krebs to provide a flush control. Peptide agonists (in volumes of 1 ml flushed with 1 ml of Krebs) were injected in logarithmic increments until a response which was maximal in amplitude was obtained. The injection site was then flushed with Krebs containing 0.1% BSA to displace any peptide remaining in the arterial line. For peptides acting at the motilin receptor, care was taken not to inject supramaximal doses as these will induce tachyphylaxis. Therefore, as responses become apparent, 0.3 or 0.5 log unit increments were used. A site was used for a dose-response determination only every 1/2 to 1 hour.
The amplitude of the calibration response to field stimulation in each site was measured and used as 100% for that site. The amplitude of the response to the agonist at each dose was determined, calculated as a % of the calibration response and plotted against the concentration. The ED50 of the response represents the amount of agonist required to produce a response which was 50% of the calibration response.

SMILES strings stand for the structures. Where a name gives a salt, the structure may show the parent alone. Square brackets hold non-standard residues; d marks the D form. Peptide text beside a SMILES is read from it. * marks the point of attachment. X1 = C[N+](C)(C)[C@@H](Cc1ccccc1)C(=O)*; NMe2Phe = CN(C)[C@@H](Cc1ccccc1)C(=O)*; NMeF = CN[C@@H](Cc1ccccc1)C(=O)O

A word on the pEC50: it is −log10 of the EC50, conventionally taken in molar units. A lower pEC50 goes with a large EC50.

Sequence of segments of rabbit duodenum (G1T803 1-400): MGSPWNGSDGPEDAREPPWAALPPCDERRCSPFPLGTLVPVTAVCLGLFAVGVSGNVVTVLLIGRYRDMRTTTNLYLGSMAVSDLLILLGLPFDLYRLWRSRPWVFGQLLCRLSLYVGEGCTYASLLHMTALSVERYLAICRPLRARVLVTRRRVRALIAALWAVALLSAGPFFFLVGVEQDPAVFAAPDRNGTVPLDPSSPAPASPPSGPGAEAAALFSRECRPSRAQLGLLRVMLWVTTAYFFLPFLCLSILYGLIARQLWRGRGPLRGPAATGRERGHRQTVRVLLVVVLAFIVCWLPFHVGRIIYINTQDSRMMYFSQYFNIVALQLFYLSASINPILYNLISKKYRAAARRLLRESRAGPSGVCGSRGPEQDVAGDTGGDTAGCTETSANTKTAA
T1 sequence (G1T803 1-400): as above

As to `CC[C@H](C)[C@H](NC(=O)[C@@H]1CCCN1C(=O)[C@@H](NC(=O)[C@H](Cc1ccccc1)N(C)C)C(C)C)C(=O)N[C@@H](Cc1ccccc1)C(=O)N[C@H](C(=O)N[C@@H](Cc1ccc(O)cc1)C(=O)NCC(=O)N[C@@H](CCC(=O)O)C(=O)N[C@@H](CC(C)C)C(=O)N[C@@H](C)C(=O)N[C@H](CCCNC(=N)N)C(=O)N[C@@H](CC(C)C)C(=O)N[C@@H](CCCCN)C(N)=O)[C@@H](C)O` (NMe2Phe-VPIFTYGELA[dR]LK-NH2), the pEC50 in assay [1] turned out to be 7.64. Further, on motilin receptor, the IC50 was 1.23 nM. For the same molecule, the ED50 in assay [2] was found to be 0.003 nmol.
The matching figures for `CC[C@H](C)[C@H](NC(=O)[C@@H]1CCCN1C(=O)[C@@H](NC(=O)[C@H](Cc1ccccc1)N(C)C)C(C)C)C(=O)N[C@@H](Cc1ccccc1)C(=O)N[C@H](C(=O)N[C@@H](Cc1ccc(O)cc1)C(=O)NCC(=O)N[C@@H](CCC(=O)O)C(=O)N[C@@H](CC(C)C)C(=O)N[C@@H](CCC(N)=O)C(=O)N[C@H](CCCNC(=N)N)C(=O)N[C@@H](CC(C)C)C(=O)N[C@@H](CCCCN)C(N)=O)[C@@H](C)O` (NMe2Phe-VPIFTYGELQ[dR]LK-NH2): 7.73, 1.17 nM and 0.002 nmol.
The molecule `CC[C@H](C)[C@H](NC(=O)[C@H](C)NC(=O)[C@@H](NC(=O)[C@H](Cc1ccccc1)[N+](C)(C)C)C(C)C)C(=O)N[C@@H](Cc1ccccc1)C(=O)N[C@H](C(=O)N[C@@H](Cc1ccc(O)cc1)C(=O)NCC(=O)N[C@@H](CCC(=O)O)C(=O)N[C@@H](CC(C)C)C(=O)N[C@@H](C)C(=O)N[C@H](CCCNC(=N)N)C(=O)N[C@@H](CC(C)C)C(=O)N[C@H](CCCCN)C(N)=O)[C@@H](C)O` (X1-VAIFTYGELA[dR]L[dK]-NH2) gave a pEC50 in assay [1] of 7.55. For the same molecule, the IC50 on motilin receptor was 1.15 nM. The molecule also gave an ED50 in assay [2] of 0.007 nmol.
The like results for `CC[C@H](C)[C@H](NC(=O)[C@H](C)NC(=O)[C@@H](NC(=O)[C@H](Cc1ccccc1)NC)C(C)C)C(=O)N[C@@H](Cc1ccccc1)C(=O)N[C@H](C(=O)N[C@@H](Cc1ccc(O)cc1)C(=O)NCC(=O)N[C@@H](CCC(=O)O)C(=O)N[C@@H](CC(C)C)C(=O)N[C@@H](C)C(=O)N[C@H](CCCNC(=N)N)C(=O)N[C@@H](CC(C)C)C(=O)N[C@@H](CCCCN)C(N)=O)[C@@H](C)O` (H-[NMeF]VAIFTYGELA[dR]LK-NH2) were, in that order, 7.77, 0.724 nM and 0.001 nmol.
For the molecule `CC[C@H](C)[C@H](NC(=O)[C@H](C)NC(=O)[C@@H](NC(=O)[C@H](Cc1ccccc1)[N+](C)(C)C)C(C)C)C(=O)N[C@@H](Cc1ccccc1)C(=O)N[C@H](C(=O)N[C@@H](Cc1ccc(O)cc1)C(=O)NCC(=O)N[C@@H](CCC(=O)O)C(=O)N[C@@H](CC(C)C)C(=O)N[C@@H](C)C(=O)N[C@H](CCCNC(=N)N)C(=O)N[C@@H](CC(C)C)C(=O)N[C@@H](CCCCN)C(N)=O)[C@@H](C)O` (X1-VAIFTYGELA[dR]LK-NH2), the pEC50 in assay [1] is 7.59. Moreover, the IC50 on motilin receptor was 1.91 nM. The molecule further registered an ED50 in assay [2] of 0.001 nmol.
The like results for `CC[C@H](C)[C@H](NC(=O)[C@H](C)NC(=O)[C@@H](NC(=O)[C@H](Cc1ccccc1)N(C)C)C(C)C)C(=O)N[C@@H](Cc1ccccc1)C(=O)N[C@H](C(=O)N[C@@H](Cc1ccc(O)cc1)C(=O)NCC(=O)N[C@@H](CCC(=O)O)C(=O)N[C@@H](CC(C)C)C(=O)N[C@@H](C)C(=O)N[C@H](CCCNC(=N)N)C(=O)N[C@@H](CC(C)C)C(=O)N[C@@H](CCCCN)C(N)=O)[C@@H](C)O` (NMe2Phe-VAIFTYGELA[dR]LK-NH2) were, in that order, 7.74, 0.708 nM and 0.003 nmol.
As for `CC[C@H](C)[C@H](NC(=O)[C@H](C)NC(=O)[C@@H](NC(=O)[C@H](Cc1ccccc1)NC)C(C)C)C(=O)N[C@@H](Cc1ccccc1)C(=O)N[C@H](C(=O)N[C@@H](Cc1ccc(O)cc1)C(=O)NCC(=O)N[C@@H](CCC(=O)O)C(=O)N[C@@H](CC(C)C)C(=O)N[C@@H](CCC(N)=O)C(=O)N[C@H](CCCNC(=N)N)C(=O)N[C@@H](CC(C)C)C(=O)N[C@@H](CCCCN)C(N)=O)[C@@H](C)O` (H-[NMeF]VAIFTYGELQ[dR]LK-NH2), the pEC50 in assay [1] is on record as 7.72. In addition, the IC50 on motilin receptor was 0.631 nM. This molecule came in with an ED50 in assay [2] of 0.06 nmol.
`CC[C@H](C)[C@H](NC(=O)[C@H](C)NC(=O)[C@@H](NC(=O)[C@H](Cc1ccccc1)NC)C(C)C)C(=O)N[C@@H](Cc1ccccc1)C(=O)N[C@H](C(=O)N[C@@H](Cc1ccc(O)cc1)C(=O)NCC(=O)N[C@@H](CCC(=O)O)C(=O)N[C@@H](CC(C)C)C(=O)N[C@@H](CCC(N)=O)C(=O)N[C@H](CCCNC(=N)N)C(=O)N[C@@H](CC(C)C)C(=O)N[C@@H](CCC(N)=O)C(N)=O)[C@@H](C)O` (H-[NMeF]VAIFTYGELQ[dR]LQ-NH2): in assay [2], the ED50 amounted to 0.024 nmol.
For `CC[C@H](C)[C@H](NC(=O)[C@H](C)NC(=O)[C@@H](NC(=O)[C@H](Cc1ccccc1)NC)C(C)C)C(=O)N[C@@H](Cc1ccccc1)C(=O)N[C@H](C(=O)N[C@@H](Cc1ccc(O)cc1)C(=O)NCC(=O)N[C@@H](CCC(=O)O)C(=O)N[C@@H](CC(C)C)C(=O)N[C@@H](C)C(=O)N[C@H](CCCNC(=N)N)C(=O)N[C@@H](CC(C)C)C(=O)N[C@H](CCCCN)C(N)=O)[C@@H](C)O` [[1-N-Methylphenylalanine, 3-alaninc, 11-alanine, 12-D-arginine, 13-Leucine, 14-D-lysine]motilin-(1-14)-peptide Amide (Porcine) Tris-trifluoroacetate Salt] (H-[NMeF]VAIFTYGELA[dR]L[dK]-NH2), the pEC50 in assay [1] is 7.80. Also, the IC50 on motilin receptor was 0.447 nM. Also, the ED50 in assay [2] was determined as 0.024 nmol.
`CC[C@H](C)[C@H](NC(=O)[C@H](C)NC(=O)[C@@H](NC(=O)[C@H](Cc1ccccc1)[N+](C)(C)C)C(C)C)C(=O)N[C@@H](Cc1ccccc1)C(=O)N[C@H](C(=O)N[C@@H](Cc1ccc(O)cc1)C(=O)NCC(=O)N[C@@H](CCC(=O)O)C(=O)N[C@@H](CC(C)C)C(=O)N[C@@H](CCC(N)=O)C(=O)N[C@H](CCCNC(=N)N)C(=O)N[C@@H](CC(C)C)C(=O)N[C@@H](CCCCN)C(N)=O)[C@@H](C)O` (X1-VAIFTYGELQ[dR]LK-NH2) yielded a negative logarithm of the EC50 (pEC50) in assay [1] of 7.32. Further, the IC50 at motilin receptor was 1.91 nM. For the same molecule, the ED50 in assay [2] was found to be 0.89 nmol.
In the case of `CC[C@H](C)[C@H](NC(=O)[C@H](C)NC(=O)[C@@H](NC(=O)[C@H](Cc1ccccc1)[N+](C)(C)C)C(C)C)C(=O)N[C@@H](Cc1ccccc1)C(=O)N[C@H](C(=O)N[C@@H](Cc1ccc(O)cc1)C(=O)NCC(=O)N[C@@H](CCC(=O)O)C(=O)N[C@@H](CC(C)C)C(=O)N[C@@H](CCC(N)=O)C(=O)N[C@@H](CCCNC(=N)N)C(=O)N[C@@H](CC(C)C)C(=O)N[C@@H](CCCCN)C(N)=O)[C@@H](C)O` (X1-VAIFTYGELQRLK-NH2), the pEC50 in assay [1] was found to be 7.58. In addition, the IC50 on motilin receptor was 1.51 nM.
Turning to `CC[C@H](C)[C@H](NC(=O)[C@@H]1CCCN1C(=O)[C@@H](NC(=O)[C@H](Cc1ccccc1)NC)C(C)C)C(=O)N[C@@H](Cc1ccccc1)C(=O)N[C@H](C(=O)N[C@@H](Cc1ccc(O)cc1)C(=O)NCC(=O)N[C@@H](CCC(=O)O)C(=O)N[C@@H](CC(C)C)C(=O)N[C@@H](CCC(N)=O)C(=O)N[C@H](CCCNC(=N)N)C(=O)N[C@@H](CC(C)C)C(=O)N[C@H](CCC(N)=O)C(N)=O)[C@@H](C)O` (H-[NMeF]VPIFTYGELQ[dR]L[dQ]-NH2), the ED50 in assay [2] came out at 0.0004 nmol.
Take `CC[C@H](C)[C@H](NC(=O)[C@@H]1CCCN1C(=O)[C@@H](NC(=O)[C@H](Cc1ccccc1)NC)C(C)C)C(=O)N[C@@H](Cc1ccccc1)C(=O)N[C@H](C(=O)N[C@@H](Cc1ccc(O)cc1)C(=O)NCC(=O)N[C@@H](CCC(=O)O)C(=O)N[C@@H](CC(C)C)C(=O)N[C@@H](C)C(=O)N[C@H](CCCNC(=N)N)C(=O)N[C@@H](CC(C)C)C(=O)N[C@@H](CCC(N)=O)C(N)=O)[C@@H](C)O` (H-[NMeF]VPIFTYGELA[dR]LQ-NH2): the ED50 in assay [2] was 0.0018 nmol.

(Values after patent US5422341A, “Motilin-like polypeptides with gastrointestinal motor stimulating activity” (Ohmeda Pharmaceutical Products Division Inc., priority 1993, dated 1995).)
